Records with an inconclusive call do not appear.
System: nude mice, HT29 intrarenal xenograft, tumor weight T/C
Assay: NCI In Vivo Anticancer Drug Screen. Data for tumor model HT29;CX-1 Human Adenocarcinoma (MER+) (intrarenal inoculation) in NU/NU Swiss (nude) mice
Conditions: endpoint: mean tumor weight change, higher = larger tumour
How it was run: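 Mice with transplanted tumors are dosed with compound while controls get vehicle only. Survival or tumor burden is then assessed per group, and the treated value is expressed relative to control.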

[1] = dose: 300.0 mg/kg/injection, schedule: Q04DX004 (sc), vehicle: Klucel (hydroxypropylcellulose) (HPC)

CCN(CC)CCC(=O)c1ccccc1
T/C (dose: 50.0 mg/kg/injection, schedule: Q04DX004 (sc), vehicle: saline with Tween-80): 65 % of control | T/C (dose: 100.0 mg/kg/injection, schedule: Q04DX004 (sc), vehicle: saline with Tween-80): 60 % of control | T/C (dose: 200.0 mg/kg/injection, schedule: Q04DX004 (sc), vehicle: saline with Tween-80): 50 % of control | T/C (dose: 400.0 mg/kg/injection, schedule: Q04DX004 (sc), vehicle: saline with Tween-80): 77 % of control

N#CC(C#N)=C/C=C/c1cccc([N+](=O)[O-])c1
T/C (dose: 100.0 mg/kg/injection, schedule: Q01DX010 (sc), vehicle: Klucel (hydroxypropylcellulose) (HPC)): 40 % of control | T/C (dose: 200.0 mg/kg/injection, schedule: Q01DX010 (sc), vehicle: Klucel (hydroxypropylcellulose) (HPC)): 38 % of control | T/C (dose: 400.0 mg/kg/injection, schedule: Q01DX010 (sc), vehicle: Klucel (hydroxypropylcellulose) (HPC)): 74 % of control | T/C (dose: 800.0 mg/kg/injection, schedule: Q01DX010 (sc), vehicle: Klucel (hydroxypropylcellulose) (HPC)): 61 % of control

CC(=O)NC(CCc1ccc(Cl)c(Cl)c1)c1cccc(O)c(=O)c1 (configuration not stated)
T/C (dose: 50.0 mg/kg/injection, schedule: Q04DX004 (sc), vehicle: Klucel (hydroxypropylcellulose) (HPC)): 107 % of control | T/C (dose: 100.0 mg/kg/injection, schedule: Q04DX004 (sc), vehicle: Klucel (hydroxypropylcellulose) (HPC)): 124 % of control | T/C (dose: 200.0 mg/kg/injection, schedule: Q04DX004 (sc), vehicle: Klucel (hydroxypropylcellulose) (HPC)): 154 % of control

CCOC(=O)c1[nH]c2cccc3c2c1CC(Br)C3=O (configuration not stated)
T/C (dose: 150.0 mg/kg/injection, schedule: Q04DX004 (sc), vehicle: saline with Tween-80): 81 % of control | T/C (dose: 300.0 mg/kg/injection, schedule: Q04DX004 (sc), vehicle: saline with Tween-80): 81 % of control | T/C (dose: 600.0 mg/kg/injection, schedule: Q04DX004 (sc), vehicle: saline with Tween-80): 71 % of control | T/C (dose: 1200.0 mg/kg/injection, schedule: Q04DX004 (sc), vehicle: saline with Tween-80): 71 % of control

NC(=O)/C=C/c1c[nH]c2nccnc12
T/C (dose: 25.0 mg/kg/injection, schedule: Q04DX004 (sc), vehicle: water): 114 % of control | T/C (dose: 50.0 mg/kg/injection, schedule: Q04DX004 (sc), vehicle: water): 64 % of control | T/C (dose: 100.0 mg/kg/injection, schedule: Q04DX004 (sc), vehicle: water): 86 % of control | T/C (dose: 200.0 mg/kg/injection, schedule: Q04DX004 (sc), vehicle: water): 102 % of control

Ic1ncnc2c1ncn2C1CCCO1 (configuration not stated)
T/C [1]: 55 % of control | T/C (dose: 600.0 mg/kg/injection, schedule: Q04DX004 (sc), vehicle: Klucel (hydroxypropylcellulose) (HPC)): 112 % of control | T/C (dose: 2400.0 mg/kg/injection, schedule: Q04DX004 (sc), vehicle: Klucel (hydroxypropylcellulose) (HPC)): 72 % of control

O=c1[nH]cnc2[nH]ncc12
T/C (dose: 150.0 mg/kg/injection, schedule: Q04DX004 (sc), vehicle: suspension in saline): 33 % of control | T/C (dose: 300.0 mg/kg/injection, schedule: Q04DX004 (sc), vehicle: suspension in saline): 31 % of control | T/C (dose: 600.0 mg/kg/injection, schedule: Q04DX004 (sc), vehicle: suspension in saline): 21 % of control | T/C (dose: 1200.0 mg/kg/injection, schedule: Q04DX004 (sc), vehicle: suspension in saline): 31 % of control

CCOC(OCC)C(=O)OCC(=O)[C@]1(O)Cc2c(O)c3c(c(O)c2[C@@H](OC2CC(N)C(O)C(C)O2)C1)C(=O)c1c(OC)cccc1C3=O (some centres not stated)
T/C (dose: 20.0 mg/kg/injection, schedule: Q04DX004 (sc), vehicle: water): 33 % of control

[Cl][Sn]([c]1ccccc1)[c]1ccccc1
T/C (dose: 75.0 mg/kg/injection, schedule: Q04DX004 (sc), vehicle: saline): 59 % of control | T/C (dose: 150.0 mg/kg/injection, schedule: Q04DX004 (sc), vehicle: saline): 67 % of control | T/C (dose: 300.0 mg/kg/injection, schedule: Q04DX004 (sc), vehicle: saline): 63 % of control | T/C (dose: 600.0 mg/kg/injection, schedule: Q04DX004 (sc), vehicle: saline): 62 % of control

CN1C(=O)NC(c2ccc(Cl)cc2)(c2ccc(Cl)cc2)C1=O
T/C (dose: 50.0 mg/kg/injection, schedule: Q01DX010 (sc), vehicle: saline with Tween-80): 97 % of control | T/C (dose: 100.0 mg/kg/injection, schedule: Q01DX010 (sc), vehicle: saline with Tween-80): 109 % of control | T/C (dose: 400.0 mg/kg/injection, schedule: Q01DX010 (sc), vehicle: saline with Tween-80): 43 % of control

COc1ccc2[nH]c3c(c2c1)CCNC3CC(C)CCC=C(C)C (configuration not stated)
T/C (dose: 37.5 mg/kg/injection, schedule: Q04DX004 (sc), vehicle: Klucel (hydroxypropylcellulose) (HPC)): 47 % of control | T/C (dose: 150.0 mg/kg/injection, schedule: Q04DX004 (sc), vehicle: Klucel (hydroxypropylcellulose) (HPC)): 62 % of control | T/C [1]: 55 % of control

From PubChem BioAssay AID206 (DTP/NCI, 2004)
